The values that follow are results of earlier work, collected in patent publication US20030022912A1, “Rapid-onset medicament for treatment of sexual dysfunction” (priority 2001, published 2003).

The conditions of the series: human subjects; sublingual administration; drug as free base except where a footnote notes a salt.

Take `CN(C)CCCN1c2ccccc2CCc2ccc(Cl)cc21` [clomipramine]: the “sublingual Tmax” value is 1.5 h.
Take `C#CCN(C)[C@H](C)Cc1ccccc1` [selegiline]: the “sublingual Tmax” value was 0.167 h.
For `O=[N+]([O-])OCC(CO[N+](=O)[O-])O[N+](=O)[O-]` [nitroglycerin], the “sublingual Tmax” value was 0.05 h.
As for `CC(C)NCC(O)c1ccc(NS(C)(=O)=O)cc1` (centres unmarked) [sotalol], the “sublingual Tmax” value was 2.1 h.
For `CN1CCc2cccc3c2[C@H]1Cc1ccc(O)c(O)c1-3` [apomorphine], the “sublingual Tmax” value was 1.02 h.
For `CCCc1nn(C)c2c(=O)[nH]c(-c3cc(S(=O)(=O)N4CCN(C)CC4)ccc3OCC)nc12` [sildenafil], the “sublingual Tmax” value was 1 h.
As for `COc1c2occc2cc2ccc(=O)oc12` [methoxsalen], the “sublingual Tmax” value is 0.417 h.
As for `CN1C(=O)C(O)N=C(c2ccccc2)c2cc(Cl)ccc21` (centres unmarked) [temazepam], the “sublingual Tmax” value was 1.08 h.
